Like-named read-outs stand apart in the source and are kept apart here. Marks after values point to notes of the source that are not given here.
What was measured:
mice [1] = settings: cited from earlier work
rats [2] = test system: rats; design: method as in PMID 25446027; settings: p.o., in mg/kg; cited from earlier work
mice [3] = test system: mice; design: method as in PMID 25446027; settings: i.p., dose protecting 50% of animals against seizures, in mg/kg; cited from earlier work
Vibrio harveyi BB7XM [4] = type: cell-based; settings: for Inhib. (%) of mutagenicity: against NQNO 40 ng/mL; for Number of revertants, Mean ± SD (antimutagenicity): test compound plus NQNO 40 ng/mL, NQNO line = mutagen alone
Protocol: (§1) In the experiment, overnight cultures of bacterial strains BB7, BB7M, BB7X, and BB7XM were used. Each culture was centrifuged and 10 µL of V. harveyi pellets was placed in 20 mL of BOSS medium. The culture was cultivated at 30 °C until the optical density reached 0.1 at 600 nm (OD600). Then, 10 µL of test compound solution (final concentration of 40 ng/mL) was added to the bacterial culture and incubated. Incubation was continued until OD600 reached 0.3–0.4. Next, 5 × 10^6 bacterial cells were spread onto BOSS agar plates with neomycin. The plates were incubated at 30 °C for 48 h and the number of neomycin-resistant colonies was counted. […] All the experiments were analyzed in three independent repetitions. Finally, MI was calculated.
(§2) Triplicate plates were set up with each test compound concentration and the entire experiment was repeated twice.
(§3) The inhibition percentage of mutagenicity was calculated as described above in the Ames antimutagenicity assay procedure.

Vibrio harveyi BB7X [5] = type: cell-based; settings: for Inhib. (%) of mutagenicity: against NQNO 40 ng/mL; for Number of revertants, Mean ± SD (antimutagenicity): test compound plus NQNO 40 ng/mL, NQNO line = mutagen alone
Protocol: as §1, §2, §3

Vibrio harveyi BB7 [6] = type: cell-based; settings: for Inhib. (%) of mutagenicity: against NQNO 40 ng/mL; for Number of revertants, Mean ± SD (antimutagenicity): test compound plus NQNO 40 ng/mL, NQNO line = mutagen alone
Protocol: as §1, §2, §3

Vibrio harveyi BB7M [7] = type: cell-based; settings: for Inhib. (%) of mutagenicity: against NQNO 40 ng/mL; for Number of revertants, Mean ± SD (antimutagenicity): test compound plus NQNO 40 ng/mL, NQNO line = mutagen alone
Protocol: as §1, §2, §3

Vibrio harveyi BB7XM [8] = test: Vibrio harveyi mutagenicity test, BB7XM; type: cell-based; settings: 40 ng/mL; for MI (mutagenic index): positive when MI ≥ 2
Protocol: as §1

Vibrio harveyi BB7X [9] = type: cell-based; settings: 40 ng/mL; for MI (mutagenic index): positive when MI ≥ 2
Protocol: as §1

Vibrio harveyi BB7 [10] = type: cell-based; settings: BB7, 40 ng/mL; for MI (mutagenic index): positive when MI ≥ 2
Protocol: as §1

Vibrio harveyi BB7M [11] = type: cell-based; settings: 40 ng/mL; for MI (mutagenic index): positive when MI ≥ 2
Protocol: as §1

[12] = test system: Salmonella typhimurium TA100; type: cell-based; settings: TA100, 40 ng/mL; for MI (mutagenic index): positive when MI ≥ 2
Protocol: The Ames assay was conducted by the preincubation method using S. typhimurium TA100 strain [60]. Each probe was performed in triplicate; 100 µL of the overnight bacterial culture, 50 µL of the investigated compounds at a concentration of 40 ng/mL, and 500 µL of a buffer solution were preincubated for 30 min at 37 °C and then added to 2 mL of the top agar containing histidine/biotin solution. The resulting mixture was poured onto minimal glucose plates. After 48 h incubation, the revertants were counted manually and the results were expressed as mutagenic index (MI) (MI = the number of revertant colonies induced in the tested sample/the number of spontaneous revertants in the negative control). […] DMSO served as the negative (solvent) control.

[13] = biological target: recombinant human P-gp membranes (Homo sapiens, UniProt P08183); test: P-gp ATPase activity assay (P-gp-Glo); settings: compounds 10–100 µM, verapamil 100 µM; 5 mM Mg ATP, 37 °C, 45 min
Protocol: The changes in the ATPase activity of P-gp were determined by using the P-gp-Glo TM assay system (Promega). […] When P-gp ATPase activity is inhibited, ATP accumulates and becomes a substrate for luciferase, with a consequent increase in luminescence. The tested compounds at increasing concentration (10–100 µM) were incubated with 5 mM Mg ATP and 25 µg recombinant human P-gp membranes at 37 °C for 45 min. The luminescence signal was started by adding ATP detection buffer. After incubation at room temperature for 25 min, the samples were read in white 96-well plates on a multi-plate reader (BIOTEK).

[14] = test system: Salmonella typhimurium TA100; type: cell-based; settings: for Inhib. (%) of mutagenicity: against NQNO 40 ng/mL; for Number of revertants, Mean ± SD (antimutagenicity): test compound plus NQNO 40 ng/mL, NQNO line = mutagen alone
Source text: as §2

mice [15] = test system: mice; design: method as in PMID 25446027; settings: i.p., printed in the ED50(MES) column; cited from earlier work
[16] = test system: human glioblastoma astrocytoma cell line U373; test: MTT viability test on human glioblastoma cells; type: cell-based; settings: U373, 10, 25, 50 or 100 µM, 24 h; listed as racemic compound
Protocol: Astrocyte cell line (ATCC, CRL-2541), human glioblastoma astrocytoma cell line U373 (ATCC, HTB17-1055), and human hepatoma HepG2 cells (ATCC, HB-8065) were used in the study. The cells were cultured in standard conditions (37 °C, 5% CO2), in EMEM medium with 2 mM glutamine and 1% non-essential amino acids, all supplemented with 10% FBS and antibiotics (penicillin–streptomycin; 10,000 U/mL; final concentration in culture medium was 1%).
The cells were seeded at a density of 1 × 10^4 in 96-well plates. Following overnight culture, the cells were treated with increasing doses of compounds 1–3 (i.e., 10, 25, 50, or 100 μM) and incubated for 24 h. Next, 10 µL of MTT (3-(4,5-dimethylthiazolyl-2)-2,5-diphenyltetrazolium bromide) reagent (Cayman) was added to each well and after 3 h of incubation (37 °C, 5% CO2) the medium was aspirated, and the formazan produced in the cells appeared as dark crystals at the bottom of the wells. Subsequently, crystal dissolving solution (Cayman) was added to each well and the optical density (OD) was determined at 570 nm on a plate reader (BIOTEK). Doxorubicin (DOX) was used as a positive control. When hepatotoxicity of test compounds was evaluated, the morphology of the cells was also determined using a bright-field inverted microscope (Nikon).

rats [17] = test system: rats; design: unit not given beside the values; settings: cited from earlier work
[18] = mice, i.p., dose producing toxicity in 50% of animals
[19] = mice, i.p., value printed in the scMet line

Sequence of recombinant human P-gp membranes (P08183 whole entry): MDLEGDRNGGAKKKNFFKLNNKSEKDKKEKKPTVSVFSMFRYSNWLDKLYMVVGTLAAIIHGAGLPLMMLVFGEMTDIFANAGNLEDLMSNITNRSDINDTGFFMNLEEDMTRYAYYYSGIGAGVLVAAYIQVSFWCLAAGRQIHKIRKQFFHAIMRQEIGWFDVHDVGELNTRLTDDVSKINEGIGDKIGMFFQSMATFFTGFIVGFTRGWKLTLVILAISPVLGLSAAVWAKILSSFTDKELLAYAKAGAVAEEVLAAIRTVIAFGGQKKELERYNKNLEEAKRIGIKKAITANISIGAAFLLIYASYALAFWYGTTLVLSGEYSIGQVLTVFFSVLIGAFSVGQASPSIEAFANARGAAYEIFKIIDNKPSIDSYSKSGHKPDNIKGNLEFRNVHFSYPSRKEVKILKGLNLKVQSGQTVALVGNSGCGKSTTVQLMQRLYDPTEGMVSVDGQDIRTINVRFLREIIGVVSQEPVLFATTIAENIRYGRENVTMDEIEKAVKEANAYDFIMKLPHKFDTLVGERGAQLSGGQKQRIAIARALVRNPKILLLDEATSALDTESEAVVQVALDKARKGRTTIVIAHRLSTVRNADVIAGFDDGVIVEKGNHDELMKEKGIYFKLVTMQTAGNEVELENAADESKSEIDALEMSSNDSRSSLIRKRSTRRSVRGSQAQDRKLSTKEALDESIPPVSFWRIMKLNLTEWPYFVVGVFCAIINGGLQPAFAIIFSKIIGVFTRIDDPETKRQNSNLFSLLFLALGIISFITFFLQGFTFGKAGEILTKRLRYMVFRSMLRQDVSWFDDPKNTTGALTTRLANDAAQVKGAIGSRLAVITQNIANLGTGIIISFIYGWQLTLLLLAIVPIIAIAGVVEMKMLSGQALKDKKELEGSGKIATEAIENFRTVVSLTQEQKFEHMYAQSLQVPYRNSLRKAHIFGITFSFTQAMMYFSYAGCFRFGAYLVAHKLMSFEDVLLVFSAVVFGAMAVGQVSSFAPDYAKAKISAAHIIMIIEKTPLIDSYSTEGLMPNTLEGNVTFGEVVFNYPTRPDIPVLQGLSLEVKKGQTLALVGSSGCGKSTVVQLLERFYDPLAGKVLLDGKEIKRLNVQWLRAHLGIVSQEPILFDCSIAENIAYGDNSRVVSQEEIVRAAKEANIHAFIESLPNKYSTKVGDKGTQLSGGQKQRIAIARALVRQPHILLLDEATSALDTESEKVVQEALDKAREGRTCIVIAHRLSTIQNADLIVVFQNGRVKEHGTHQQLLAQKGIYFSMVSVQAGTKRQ

Structure (SMILES) | ED50(MES) (rats [2]) | ED50(MES) (mice [3]) | Inhib. (%) of mutagenicity (Vibrio harveyi BB7XM [4]) | Number of revertants, Mean ± SD (antimutagenicity) (Vibrio harveyi BB7XM [4]) | Inhib. (%) of mutagenicity (Vibrio harveyi BB7X [5]) | Number of revertants, Mean ± SD (antimutagenicity) (Vibrio harveyi BB7X [5]) | Inhib. (%) of mutagenicity (Vibrio harveyi BB7 [6]) | Number of revertants, Mean ± SD (antimutagenicity) (Vibrio harveyi BB7 [6]) | Inhib. (%) of mutagenicity (Vibrio harveyi BB7M [7]) | Number of revertants, Mean ± SD (antimutagenicity) (Vibrio harveyi BB7M [7]) | Number of revertants, Mean ± SD (Vibrio harveyi BB7XM [8]) | MI (mutagenic index) (Vibrio harveyi BB7XM [8]) | Number of revertants, Mean ± SD (Vibrio harveyi BB7X [9]) | MI (mutagenic index) (Vibrio harveyi BB7X [9]) | Number of revertants, Mean ± SD (Vibrio harveyi BB7 [10]) | MI (mutagenic index) (Vibrio harveyi BB7 [10]) | Number of revertants, Mean ± SD (Vibrio harveyi BB7M [11]) | MI (mutagenic index) (Vibrio harveyi BB7M [11]) | Number of revertants, Mean ± SD [12] | MI (mutagenic index) [12] | other results
NC(=O)N1c2ccccc2C=Cc2ccccc21 [CBZ, carbamazepine] | 3.57 ^^ | 9.85 ^# | – | – | – | – | – | – | – | – | – | – | – | – | – | – | – | – | – | – | TD50 (mice [1]; mouse, in vivo, ip): 47.8 ^#
Cc1cc(OCCN[C@@H]2CCCC[C@H]2O)ccc1Cl [Compound 1] | – | 38.34 ^# | (35) % | 16 ± 2 | (31) % | 20 ± 4 | (32) % | 26 ± 3 | (37) % | 22 ± 2 | 18 ± 2 | 1.6 | 16 ± 5 | 0.9 | 21 ± 3 | 1.1 | 22 ± 3 | 1.0 | 9 ± 4 | 0.6 | TD50 (mice [1]; [18]): 66.03 ^#; TD50 (mice [1]; [19]): 66.03 ^#scMet; effect on P-gp ATPase activity (luminescence) [13]: more potent; Inhib. (%) of mutagenicity [14]: (27) %; Number of revertants, Mean ± SD (antimutagenicity) [14]: 16 ± 2; ED50 (scMet) (mice [15]): >90.00 ^#scMet
Cc1cc(OCCN[C@H]2CCCC[C@@H]2O)ccc1Cl [Compound 2] | – | – | (40) % | 14 ± 4 | (30) % | 21 ± 3 | (38) % | 23 ± 4 | (41) % | 20 ± 4 | 10 ± 3 | 0.9 | 10 ± 6 | 0.6 | 23 ± 5 | 1.2 | 23 ± 3 | 1.1 | 3 ± 1 | 0.2 | Inhib. (%) of mutagenicity [14]: (38) %; Number of revertants, Mean ± SD (antimutagenicity) [14]: 14 ± 3
Cc1cc(OCCNC2CCCCC2O)ccc1Cl (stereo not drawn) [Compound 3] | 99.25 ^^ | 25.05 ^# | (57) % | 10 ± 4 | (29) % | 21 ± 4 | (51) % | 19 ± 3 | (36) % | 22 ± 5 | 15 ± 4 | 1.4 | 13 ± 4 | 1.0 | 23 ± 3 | 1.4 | 27 ± 4 | 1.7 | 6 ± 3 | 0.4 | TD50 (mice [1]; [18]): 71.04 ^#; TD50 (mice [1]; [19]): 71.04 ^#scMet; cytotoxicity against human glioblastoma cells (MTT viability) [16]: less cytotoxic than the two enantiomers; Inhib. (%) of mutagenicity [14]: (41) %; Number of revertants, Mean ± SD (antimutagenicity) [14]: 13 ± 3; TD50 (rats [17]; rats, p.o.): >250 ^^; ED50 (scMet) (mice [15]): >150 ^#scMet
O=C1NC(=O)C(c2ccccc2)(c2ccccc2)N1 [PHT, phenytoin] | 32.2 ^^ | 6.48 ^# | – | – | – | – | – | – | – | – | – | – | – | – | – | – | – | – | – | – | TD50 (rats [17]; rats, p.o.): >500 ^^
CCCC(CCC)C(=O)O [VPA, valproate] | 395 ^^ | 287 ^# | – | – | – | – | – | – | – | – | – | – | – | – | – | – | – | – | – | – | TD50 (rats [17]; rat, in vivo, po): 859 ^^

From publication PMC6651381 (Molecules, 2019)
